Each structure is given as a SMILES string.

Data set [1] is described as follows: The drug is tested on Bifidobacterium ruminantium strain: fecal isolate for biotransformation. The drug concentrations were measured before and after a 12-h incubation by liquid-chromatography-coupled mass spectrometry (LC–MS). The settings on record: 2 µM.
A short description of data set [2]: The drug is tested on Collinsella aerofaciens strain: ATCC25986 for biotransformation. The drug concentrations were measured before and after a 12-h incubation by liquid-chromatography-coupled mass spectrometry (LC–MS). The settings on record: 2 µM.
A short description of data set [3]: The drug is tested on Alistipes indistinctus strain: DSM22520 for biotransformation. The drug concentrations were measured before and after a 12-h incubation by liquid-chromatography-coupled mass spectrometry (LC–MS). The settings on record: 2 µM.
A short description of data set [4]: The drug is tested on Bacteroides caccae strain: ATCC43185 for biotransformation. The drug concentrations were measured before and after a 12-h incubation by liquid-chromatography-coupled mass spectrometry (LC–MS). Conditions: 2 µM.
Data set [5] is described as follows: The drug is tested on Bacteroides finegoldii strain: DSM17565 for biotransformation. The drug concentrations were measured before and after a 12-h incubation by liquid-chromatography-coupled mass spectrometry (LC–MS). The settings on record: 2 µM.
Data set [6] in a line: The drug is tested on Bacteroides fragilis strain: HMW610 for biotransformation. The drug concentrations were measured before and after a 12-h incubation by liquid-chromatography-coupled mass spectrometry (LC–MS). Conditions: 2 µM.
Data set [7] in a line: The drug is tested on Bacteroides fragilis strain: HMW615 for biotransformation. The drug concentrations were measured before and after a 12-h incubation by liquid-chromatography-coupled mass spectrometry (LC–MS). The settings on record: 2 µM.
Data set [8] in a line: The drug is tested on Bacteroides sp. WH2 strain: WH2 for biotransformation. The drug concentrations were measured before and after a 12-h incubation by liquid-chromatography-coupled mass spectrometry (LC–MS). The settings on record: bacteroides sp. wh2, 12 h, 2 µM.
Data set [9] in a line: The drug is tested on Anaerococcus hydrogenalis strain: DSM7454 for biotransformation. The drug concentrations were measured before and after a 12-h incubation by liquid-chromatography-coupled mass spectrometry (LC–MS). The settings on record: 2 µM.
Data set [10] is described as follows: The drug is tested on Blautia luti strain: DSM14534 for biotransformation. The drug concentrations were measured before and after a 12-h incubation by liquid-chromatography-coupled mass spectrometry (LC–MS). Conditions: 2 µM. Further details: dose 2 uM, timepoint 0 vs 12 hours. The data set is classed as ADME.
Data set [11] is described as follows: The drug is tested on Clostridium ramosum strain: DSM1402 for biotransformation. The drug concentrations were measured before and after a 12-h incubation by liquid-chromatography-coupled mass spectrometry (LC–MS). Conditions: thomasclavelia ramosa, 2 µM.
A short description of data set [12]: The drug is tested on Coprococcus comes strain: ATCC27758 for biotransformation. The drug concentrations were measured before and after a 12-h incubation by liquid-chromatography-coupled mass spectrometry (LC–MS). The data set is classed as ADME. The arrangement: dose 2 uM, timepoint 0 vs 12 hours. Conditions: 2 µM.
A short description of data set [13]: The drug is tested on Ruminococcus gnavus strain: ATCC29149 for biotransformation. The drug concentrations were measured before and after a 12-h incubation by liquid-chromatography-coupled mass spectrometry (LC–MS). Conditions: mediterraneibacter gnavus, 2 µM.
Data set [14] is described as follows: The drug is tested on Ruminococcus torques strain: ATCC27756 for biotransformation. The drug concentrations were measured before and after a 12-h incubation by liquid-chromatography-coupled mass spectrometry (LC–MS). The data set is classed as ADME. Further details: dose 2 uM, timepoint 0 vs 12 hours. Conditions: 2 µM.
Data set [15] is described as follows: The drug is tested on Edwardsiella tarda strain: ATCC23685 for biotransformation. The drug concentrations were measured before and after a 12-h incubation by liquid-chromatography-coupled mass spectrometry (LC–MS). The settings on record: 2 µM.
A short description of data set [16]: The drug is tested on Enterobacter cancerogenus strain: ATCC35316 for biotransformation. The drug concentrations were measured before and after a 12-h incubation by liquid-chromatography-coupled mass spectrometry (LC–MS). Conditions: 2 µM.
For data set [17] the following is noted: anaerostipes sp., 12 h, 2 µM.
Description: The drug is tested on Anaerostipes sp. strain: fecal isolate for biotransformation. The drug concentrations were measured before and after a 12-h incubation by liquid-chromatography-coupled mass spectrometry (LC–MS)
For data set [18] the following is noted: enterocloster bolteae, 12 h, 2 µM.
Description: The drug is tested on Clostridium bolteae strain: ATCCBAA-613 for biotransformation. The drug concentrations were measured before and after a 12-h incubation by liquid-chromatography-coupled mass spectrometry (LC–MS)
Data set [19] can be described thus: The drug is tested on Bacteroides dorei strain: DSM17855 for biotransformation. The drug concentrations were measured before and after a 12-h incubation by liquid-chromatography-coupled mass spectrometry (LC–MS). Conditions: phocaeicola dorei, 2 µM.
Data set [20] can be described thus: The drug is tested on Eubacterium rectale strain: ATCC33656 for biotransformation. The drug concentrations were measured before and after a 12-h incubation by liquid-chromatography-coupled mass spectrometry (LC–MS). The settings on record: agathobacter rectalis, 2 µM.

`Fc1ccc([C@@H]2CCNC[C@H]2COc2ccc3c(c2)OCO3)cc1` [PAROXETINE]: the “Bacterial Biotransformation” value is listed as “Compound NOT metabolized” in [1]; “Compound NOT metabolized” in data set [2]; “Compound NOT metabolized” in data set [3]; “Compound NOT metabolized” in data set [4]; “Compound metabolized” in data set [5]; “Compound NOT metabolized” in [6]. Further, the “Bacterial Biotransformation” value in [7] is given as “Compound NOT metabolized”; in data set [8] it was “Compound NOT metabolized”; in data set [9] it was “Compound metabolized”; in [10] it was “Compound NOT metabolized”; in data set [11] it was “Compound NOT metabolized”; in [12], “Compound NOT metabolized”. In addition, the “Bacterial Biotransformation” value in data set [13] was “Compound NOT metabolized”; in data set [14] it was “Compound NOT metabolized”; in [15], “Compound NOT metabolized”; in [16], “Compound metabolized”; in data set [17], “Compound metabolized”; in [18] it was “Compound metabolized”.

Turning to `COC(=O)C1=C(C)NC(C)=C(C(=O)OC(C)C)C1c1cccc2nonc12` (stereo not given) [ISRADIPINE], the “Bacterial Biotransformation” value in [1], in data set [2], in data set [3], in [19], in [5] and in [6] was “Compound NOT metabolized” throughout. Besides, the “Bacterial Biotransformation” value in data set [7], in data set [10], in data set [11], in data set [12], in [13] and in data set [14] was “Compound NOT metabolized” each time. Also, the “Bacterial Biotransformation” value in [15], in data set [16], in data set [17] and in [18] was “Compound NOT metabolized” throughout.

For the compound `CC(C)[C@H]1CC[C@H](C(=O)N[C@H](Cc2ccccc2)C(=O)O)CC1` [NATEGLINIDE], the “Bacterial Biotransformation” value in [1] is on record as “Compound NOT metabolized”; in [2], “Compound NOT metabolized”; in data set [3], “Compound NOT metabolized”; in data set [4], “Compound NOT metabolized”; in [5] it was “Compound NOT metabolized”; in [6], “Compound metabolized”. The “Bacterial Biotransformation” value is on record as “Compound metabolized” in [7]; “Compound NOT metabolized” in data set [8]; “Compound NOT metabolized” in data set [9]; “Compound NOT metabolized” in data set [11]; “Compound NOT metabolized” in data set [12]; “Compound NOT metabolized” in [20]. Also, the “Bacterial Biotransformation” value in data set [13], in data set [14], in data set [15], in data set [16], in data set [17] and in data set [18] was “Compound NOT metabolized” each time.

Take `CO[C@]12C[C@@H](COC(=O)c3cncc(Br)c3)CN(C)[C@@H]1Cc1cn(C)c3cccc2c13` [NICERGOLINE]: the “Bacterial Biotransformation” value is reported as “Compound NOT metabolized” in data set [1]; “Compound NOT metabolized” in data set [3]; “Compound NOT metabolized” in [4]; “Compound metabolized” in data set [19]; “Compound NOT metabolized” in data set [5]; “Compound NOT metabolized” in data set [7]. In addition, the “Bacterial Biotransformation” value in data set [8], in [10], in data set [11], in [13], in data set [14] and in [15] was “Compound NOT metabolized” each time. Also, the “Bacterial Biotransformation” value in data set [16] and in data set [17] was “Compound NOT metabolized” throughout.

In the case of `CCCN1C[C@H](CSC)C[C@@H]2c3cccc4[nH]cc(c34)C[C@H]21.CS(=O)(=O)O` [PERGOLIDE MESYLATE], the “Bacterial Biotransformation” value in [1], in data set [2], in data set [3], in data set [4], in data set [19] and in [5] was “Compound NOT metabolized” throughout. The “Bacterial Biotransformation” value in [7], in data set [8], in data set [9], in [10], in data set [11] and in data set [12] was “Compound NOT metabolized” throughout. Moreover, the “Bacterial Biotransformation” value in [20], in [13], in [14], in data set [16], in data set [17] and in data set [18] was “Compound NOT metabolized” each time.

As to `CCc1nn(CCCN2CCN(c3cccc(Cl)c3)CC2)c(=O)n1CCOc1ccccc1` [NEFAZODONE], the “Bacterial Biotransformation” value in data set [1], in [2], in data set [3], in [4], in data set [6] and in data set [7] was “Compound NOT metabolized” throughout. In addition, the “Bacterial Biotransformation” value in data set [8], in [9], in [10], in data set [11], in [12] and in data set [20] was “Compound NOT metabolized” throughout. Further, the “Bacterial Biotransformation” value in data set [13], in data set [14], in [15], in data set [16], in [17] and in data set [18] was “Compound NOT metabolized” in each case.

For `CCN(CC)CCOC(=O)C(Cc1cccc2ccccc12)CC1CCCO1.O=C(O)C(=O)O` (stereo not given) [NAFRONYL OXALATE], the “Bacterial Biotransformation” value is listed as “Compound metabolized” in data set [1]; “Compound NOT metabolized” in data set [2]; “Compound NOT metabolized” in [3]; “Compound NOT metabolized” in data set [4]; “Compound NOT metabolized” in data set [5]; “Compound NOT metabolized” in data set [7]. For the same compound, the “Bacterial Biotransformation” value in data set [8], in [9], in data set [10], in [11], in data set [12] and in data set [20] was “Compound NOT metabolized” each time. In addition, the “Bacterial Biotransformation” value in data set [13], in data set [14], in data set [15], in [16], in data set [17] and in data set [18] was “Compound NOT metabolized” in each case.

(Values after ChEMBL document CHEMBL5303573, “Mapping human microbiome drug metabolism by gut bacteria and their genes” (Nature, 2019).)
